Values of other authors, collected in patent US20190216952A1, “Method for substantiating validating products for environmental safety” (priority 2018, published 2019).

Tests used:
coral [1] = details: Danovaro et al 2008
coral [2] = details: Downs et al

Row | SMILES | coral bleaching/death (coral [1]) | toxicity in coral (coral [2])
1 | CCCCC(CC)COC(=O)C=Cc1ccc(OC)cc1 (centres unmarked) [Octinoxate] | caused coral bleaching/death | 
2 | Cc1ccc(C=C2C(=O)C3(C)CCC2C3(C)C)cc1 (centres unmarked) [4-Methylbenzylidene Camphor] | caused coral bleaching/death | 
3 | CCCCOC(=O)c1ccc(O)cc1 [Butylparaben] | caused coral bleaching/death | 
4 | COc1ccc(C(=O)c2ccccc2)c(O)c1 [Oxybenzone] | caused coral bleaching/death | toxicity
